Results published in patent publication US9422248B2 (University of Iowa Research Foundation, priority 2012, dated 2016).
Values joined by “and” are separate entries in the source; they are usually repeats but may differ in a detail not shown here. Equal entries are not always repeated. Where two headings read alike, the source gives them in different places.

What was measured:
[1] = system: maximal electroshock (MES) model; test: maximal electroshock (MES) model; assay type: in vivo, mouse; settings: for responders at 30 mg/kg / responders at 100 mg/kg / responders at 300 mg/kg: Mus musculus, MES; for responders at 30 mg/kg: 30 mg/kg ip; for responders at 30 mg/kg / responders at 300 mg/kg: read-out: number of animals protected/number of animals tested; for responders at 100 mg/kg: 100 mg/kg ip, read-out: number of animals protected/number of animals tested (converted); for responders at 300 mg/kg: 300 mg/kg ip
Text: (§1) All compounds (FIG. 1) were screened in three whole mouse models: the maximal electroshock model (MES), the scMET test (pentylenetetrazole, Metrazol), and the 6 Hz psychomotor seizure model of partial epilepsy (32 mA). Adult male CF No 1 albino mice (26-30 g) were used for the 6 Hz test and 18-25 g mice were used in the MES and scMet tests. The animals are housed, fed, and handled in a manner consistent with the recommendations in the National Council Publication, “Guide for the Care and Use of Laboratory Animals”. The animal studies were performed by the NINDS Anticonvulsant Screening Program under IACUC number 09-12014. All compounds were administered ip in polyethylene glycol, 30%.
(§2) The MES model, which generates generalized tonic-clonic seizures, involved pretreating mice with experimental compound, and administering 60 Hz of alternating current (50 mA) for 2 s via corneal electrodes. Prior to current administration, the animal's corneas were treated topically with 1% tetracaine. Animals are considered protected if the hindlimb tonic extensor component is absent. The scMET test was done by pretreating mice with experimental compound and administering 85 mg/kg Metrazol into the loose folds of the skin in the midline of the neck. Eighty-five mg/kg Metrazol is the dose that causes seizures in 97% (CD97) of control animals.

[2] = system: scMET model (pentylenetetrazole, Metrazol); test: scMET test (subcutaneous Metrazol); assay type: in vivo, mouse; settings: for responders at 30 mg/kg / responders at 100 mg/kg / responders at 300 mg/kg: Mus musculus, scMET, read-out: number of animals protected/number of animals tested; for responders at 30 mg/kg: 30 mg/kg ip; for responders at 100 mg/kg: 100 mg/kg ip; for responders at 300 mg/kg: 300 mg/kg ip
Text: as §1, §2

rotorod test = test: Toxicity by the rotorod test; assay type: in vivo; settings: for TD50: rotorod, ip, probit analysis
Text: All compounds (FIG. 1) were screened in three whole mouse models: the maximal electroshock model (MES), the scMET test (pentylenetetrazole, Metrazol), and the 6 Hz psychomotor seizure model of partial epilepsy (32 mA). Adult male CF No 1 albino mice (26-30 g) were used for the 6 Hz test and 18-25 g mice were used in the MES and scMet tests. The animals are housed, fed, and handled in a manner consistent with the recommendations in the National Council Publication, “Guide for the Care and Use of Laboratory Animals”. […] All compounds were administered ip in polyethylene glycol, 30%.
The 6 Hz test (also known as the minimal clonic seizure, or psychomotor test) involved delivering a corneal stimulus of 32 mA for 3 s. […] Seizures consist of a minimal clonic phase followed by stereotyped automatistic behaviors. Animals not showing such behaviors were considered protected. Toxicity was determined by the rotorod test. For this test, the animal is placed on a rotorod at 6 rpm following dosing. The animal is considered toxic if it falls off the rotorod three times in a 1 min period. The ED50, TD50 and confidence intervals were determined by probit analysis.

6 Hz (32 mA) model = test: 6 Hz (32 mA) psychomotor seizure model of partial epilepsy; assay type: in vivo, mouse; settings: for complete protection, animals: 6 Hz, one or more time points from 0.25 or 1 h; for ED50: ip; for antiseizure activity in the 6 Hz model: mouse, in vivo; for Protective effects, number of animals protected/number of animals tested: 100 mg/kg ip
Text: as §1
The 6 Hz test (also known as the minimal clonic seizure, or psychomotor test) involved delivering a corneal stimulus of 32 mA for 3 s. This current elicits psychomotor seizures in 97% of untreated animals. Seizures consist of a minimal clonic phase followed by stereotyped automatistic behaviors. Animals not showing such behaviors were considered protected. Toxicity was determined by the rotorod test. For this test, the animal is placed on a rotorod at 6 rpm following dosing. The animal is considered toxic if it falls off the rotorod three times in a 1 min period. The ED50, TD50 and confidence intervals were determined by probit analysis.

SMILES | MES protection ([1]; 300 mg/kg dose) | MES protection, time points after dosing ([1]; 300 mg/kg dose) | responders at 30 mg/kg ([1]; 0.5 h) [%] | responders at 30 mg/kg ([1]; 4 h) [%] | responders at 100 mg/kg ([1]; 0.5 h) [%] | responders at 100 mg/kg ([1]; 4 h) [%] | responders at 300 mg/kg ([1]; 0.5 h) [%] | responders at 300 mg/kg ([1]; 4 h) [%] | responders at 30 mg/kg ([2]; 0.5 h) [%] | responders at 30 mg/kg ([2]; 4 h) [%] | responders at 100 mg/kg ([2]; 0.5 h) [%] | responders at 100 mg/kg ([2]; 4 h) [%] | responders at 300 mg/kg ([2]; 0.5 h) [%] | responders at 300 mg/kg ([2]; 4 h) [%] | TD50 (rotorod test) | complete protection, animals (6 Hz (32 mA) model; 100 mg/kg) | Toxicity, animals/number of animals tested (rotorod test; dose 100 mg/kg ip, 0.25 h) | Toxicity, animals/number of animals tested (rotorod test; dose 100 mg/kg ip, 0.5 h) | Toxicity, animals/number of animals tested (rotorod test; dose 100 mg/kg ip, 1 h) | Toxicity, animals/number of animals tested (rotorod test; dose 100 mg/kg ip, 4 h) | other results
CCC(C)c1cc(C(O)C(F)(F)F)cc(Br)c1O (stereo not shown) [RM129, 2-Bromo-6-sec-Butyl-4-(2,2,2-trifluoro-1-hydroxy-ethyl)-phenol] | some protection | protected only at 0.5 h | 0 | 0 | 0 | 0 | 100 | 0 | 0 | 0 | 0 | 0 | 0 | 0 | 144.4 mg/kg | 4 of 4 | – | – | – | – | responders at 100 mg/kg ([1]; 0.25 h): 0%; responders at 100 mg/kg ([1]; 1 h): 0%; ED50 (6 Hz (32 mA) model; Mus musculus): 87.6 mg/kg
CCCc1cc(C(O)C(F)(F)F)ccc1O (stereo not shown) [RM1208, 2-n-Propyl-4-(2,2,2-trifluoro-1-hydroxy-ethyl)-phenol] | some protection | protection at both 0.5 and 4 h | 0 | 0 | 0 | 0 | 100 | 100 | 0 | 0 | 0 | 0 | 100 | 0 | – | – | 0/2 | 0/8 | 0/3 | 0/4 | responders at 30 mg/kg ([1]; 0.25 h): 0%; responders at 30 mg/kg ([1]; 1 h): 0%; responders at 30 mg/kg ([1]; 2 h): 0%; responders at 30 mg/kg ([1]; 6 h): 0%; scMET protection, time points after dosing ([2]; 300 mg/kg dose): at 0.5 h only; Toxicity, animals/number of animals tested (rotorod test; dose 100 mg/kg ip, 2 h): 0/3; Toxicity, animals/number of animals tested (rotorod test; dose 100 mg/kg ip, 6 h): 0/3; Toxicity, animals/number of animals tested (rotorod test; dose 30 ip, 0.5 h): 0/4; Toxicity, animals/number of animals tested (rotorod test; dose 30 ip, 4 h): 0/2; Toxicity, animals/number of animals tested (rotorod test; dose 300 ip, 0.5 h): 3/4; Toxicity, animals/number of animals tested (rotorod test; dose 300 ip, 4 h): 0/2; antiseizure activity in the 6 Hz model (6 Hz (32 mA) model): not an active compound
CCC(C)c1cc(C(O)C(F)(F)F)ccc1O (stereo not shown) [RM131, 2-sec-Butyl-4-(2,2,2-trifluoro-1-hydroxy-ethyl)-phenol] | some protection | protected only at 0.5 h | 0 | 0 | 0 | 0 | 100 | 0 | 0 | 0 | 0 | 0 | 100 | 0 | 86 mg/kg and 86.04 mg/kg | 4 of 4 | – | – | – | – | ED50 (6 Hz (32 mA) model; 6 Hz (32 mA), probit analysis): 53.85 mg/kg; ED50 (6 Hz (32 mA) model; Mus musculus, 6 Hz (32 mA), probit analysis, read-out: ED50): 53.8 mg/kg; antiseizure activity in the 6 Hz model (6 Hz (32 mA) model): relatively good antiseizure activity
CCCc1cc(C(O)C(F)(F)F)cc(Br)c1O (stereo not shown) [RM1204, 2-Bromo-6-n-propyl-4-(2,2,2-trifluoro-1-hydroxy-ethyl)-phenol] | – | – | 0 | 0 | 0 | 0 | 0 | 0 | 0 | 0 | 0 | 0 | 0 | 0 | – | – | 1/4 | 0/4 | 1/4 | 0/4 | MES protection ([1]; any dose (30-300 mg/kg ip)): no MES protection; Toxicity, animals/number of animals tested (rotorod test; dose 100 mg/kg ip, 2 h): 0/4; toxicity (rotorod test; mouse, in vivo): only low toxicity; Protective effects, number of animals protected/number of animals tested (6 Hz (32 mA) model; 6 Hz (32 mA), 0.25 h, 100 mg/kg): 4/4 and complete protection; Protective effects, number of animals protected/number of animals tested (6 Hz (32 mA) model; 6 Hz (32 mA), 0.5 h, 100 mg/kg): 4/4 and complete protection; Protective effects, number of animals protected/number of animals tested (6 Hz (32 mA) model; 6 Hz (32 mA), 1 h, 100 mg/kg): partial protection and 2/4; Protective effects, number of animals protected/number of animals tested (6 Hz (32 mA) model; 6 Hz (32 mA), 2 h): 0/4; Protective effects, number of animals protected/number of animals tested (6 Hz (32 mA) model; 6 Hz (32 mA), 4 h): 0/4
CCc1cc(C(O)C(F)(F)F)ccc1O (stereo not shown) [RM166, 2-Ethyl-4-(2,2,2-trifluoro-1-hydroxy-ethyl)-phenol] | – | – | 0 | 0 | 0 | 0 | 0 | 0 | 0 | 0 | 0 | 0 | 0 | 0 | – | – | – | 0/8 | – | 0/4 | MES protection ([1]; any dose (30-300 mg/kg ip)): no MES protection; Toxicity, animals/number of animals tested (rotorod test; dose 30 ip, 0.5 h): 0/4; Toxicity, animals/number of animals tested (rotorod test; dose 30 ip, 4 h): 0/2; Toxicity, animals/number of animals tested (rotorod test; dose 300 ip, 0.5 h): 0/4; Toxicity, animals/number of animals tested (rotorod test; dose 300 ip, 4 h): 0/2; evidence of toxicity (rotorod test; doses up to 300 mg/kg): Neither RM170 nor RM166 showed any evidence of toxicity; protective effects in the 6 Hz test (6 Hz (32 mA) model; 100 mg/kg, any time point from 0.25 to 4 h): no protective effects; Protective effects, number of animals protected/number of animals tested (6 Hz (32 mA) model; 6 Hz (32 mA), 0.25 h): 0/4; Protective effects, number of animals protected/number of animals tested (6 Hz (32 mA) model; 6 Hz (32 mA), 0.5 h): 0/4; Protective effects, number of animals protected/number of animals tested (6 Hz (32 mA) model; 6 Hz (32 mA), 1 h): 0/4; Protective effects, number of animals protected/number of animals tested (6 Hz (32 mA) model; 6 Hz (32 mA), 2 h): 0/4; Protective effects, number of animals protected/number of animals tested (6 Hz (32 mA) model; 6 Hz (32 mA), 4 h): 1/4
